This is an account of results in ChEMBL document CHEMBL4270610, “Pyrrolopyrimidines: An update on recent advancements in their medicinal attributes” (Eur J Med Chem, 2018).

Values after ≈ are worked out from the molar mass of the structure shown.

Assay [1] concerns unidentified influenza virus. Nature of the assay: Antiviral activity against Influenza virus H5N1. Format: functional.
A further assay relates to Newcastle disease virus. Nature of the assay: Antiviral activity against Newcastle disease virus. The class given is functional. To be noted: avian paramyxovirus 1.
A further assay has as its system Tetrahymena. Nature of the assay: Protozoacidal activity against Tetrahymena. Format: functional.
The target of assay [2] is T1, Tyrosine-protein kinase Lyn (Homo sapiens, UniProt P07948). Nature of the assay: Inhibition of Lyn (unknown origin) at 0.1 mM using Src-family kinase bisamide rhodamine 110 peptide substrate after 1 hr by fluorescence assay relative to control.
Target sequence in this assay (P07948 2-512 limits assumed): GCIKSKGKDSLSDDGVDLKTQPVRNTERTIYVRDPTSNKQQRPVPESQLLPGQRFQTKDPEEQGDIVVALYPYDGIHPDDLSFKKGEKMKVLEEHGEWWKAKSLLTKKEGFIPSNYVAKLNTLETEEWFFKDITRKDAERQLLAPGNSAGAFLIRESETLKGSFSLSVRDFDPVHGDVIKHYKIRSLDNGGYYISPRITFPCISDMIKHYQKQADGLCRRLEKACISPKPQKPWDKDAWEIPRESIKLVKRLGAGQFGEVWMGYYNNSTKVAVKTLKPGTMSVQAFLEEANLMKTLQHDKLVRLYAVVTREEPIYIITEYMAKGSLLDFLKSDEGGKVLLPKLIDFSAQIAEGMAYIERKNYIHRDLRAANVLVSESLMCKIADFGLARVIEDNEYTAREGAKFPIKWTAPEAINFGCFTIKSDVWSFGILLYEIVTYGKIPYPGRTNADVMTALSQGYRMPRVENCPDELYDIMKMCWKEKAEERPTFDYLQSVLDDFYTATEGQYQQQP
Assay [3] addresses T2, Tyrosine-protein kinase Fyn (Homo sapiens, UniProt P06241). Nature of the assay: Inhibition of Fyn (unknown origin) at 0.1 mM using Src-family kinase bisamide rhodamine 110 peptide substrate after 1 hr by fluorescence assay relative to control.
Target sequence in this assay (P06241 2-537 limits assumed): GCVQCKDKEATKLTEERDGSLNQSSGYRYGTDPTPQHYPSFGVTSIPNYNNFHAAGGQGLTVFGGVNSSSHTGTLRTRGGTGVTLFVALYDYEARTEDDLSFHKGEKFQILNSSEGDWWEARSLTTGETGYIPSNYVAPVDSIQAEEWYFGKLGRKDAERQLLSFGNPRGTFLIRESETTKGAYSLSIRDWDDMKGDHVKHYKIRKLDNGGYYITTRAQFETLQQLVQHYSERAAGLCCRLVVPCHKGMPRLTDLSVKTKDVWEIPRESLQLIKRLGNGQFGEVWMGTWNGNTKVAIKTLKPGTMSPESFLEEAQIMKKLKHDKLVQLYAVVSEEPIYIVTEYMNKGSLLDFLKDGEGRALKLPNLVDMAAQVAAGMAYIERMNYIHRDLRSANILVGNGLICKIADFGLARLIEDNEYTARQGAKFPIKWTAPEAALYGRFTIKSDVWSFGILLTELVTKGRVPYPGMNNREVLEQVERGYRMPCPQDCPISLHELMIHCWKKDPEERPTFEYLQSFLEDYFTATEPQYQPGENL
Assay [4] deals with Proto-oncogene tyrosine-protein kinase Src (Homo sapiens) (UniProt P12931). Nature of the assay: Inhibition of Src (unknown origin) at 0.1 mM using Src-family kinase bisamide rhodamine 110 peptide substrate after 1 hr by fluorescence assay relative to control.
In a further assay the test system is Jurkat E6.1. Nature of the assay: Antiproliferative activity against human Jurkat E6-1 cells. The class given is functional, cell-based.
The subject of the next assay is HL-60. Nature of the assay: Antiproliferative activity against human HL60 cells. The class given is functional, cell-based.
The target of assay [5] is T1, Tyrosine-protein kinase Lyn. Nature of the assay: Inhibition of Lyn (unknown origin) using Src-family kinase bisamide rhodamine 110 peptide substrate after 1 hr by fluorescence assay.
Target sequence in this assay (P07948 whole entry): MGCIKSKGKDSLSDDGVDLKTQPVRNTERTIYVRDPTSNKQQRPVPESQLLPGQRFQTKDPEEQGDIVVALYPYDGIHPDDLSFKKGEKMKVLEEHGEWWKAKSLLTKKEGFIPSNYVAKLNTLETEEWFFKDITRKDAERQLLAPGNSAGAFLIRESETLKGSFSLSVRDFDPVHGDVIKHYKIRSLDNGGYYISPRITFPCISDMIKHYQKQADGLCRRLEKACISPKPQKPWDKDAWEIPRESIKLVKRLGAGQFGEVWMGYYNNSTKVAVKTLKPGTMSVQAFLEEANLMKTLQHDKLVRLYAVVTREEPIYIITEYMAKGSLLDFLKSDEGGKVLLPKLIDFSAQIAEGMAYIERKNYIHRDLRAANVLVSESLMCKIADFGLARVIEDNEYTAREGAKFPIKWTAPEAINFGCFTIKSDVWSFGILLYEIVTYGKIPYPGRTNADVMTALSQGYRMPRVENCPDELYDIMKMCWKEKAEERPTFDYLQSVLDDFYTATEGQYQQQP
The subject of another assay is Salmonella typhimurium. Nature of the assay: Antibacterial activity against Salmonella typhimurium. The note with it: Salmonella enterica. The class given is functional, Salmonella enterica subsp. enterica serovar Typhimurium.
Another assay deals with Escherichia coli. Nature of the assay: Antibacterial activity against Escherichia coli. The class given is functional.
In assay [6] the test system is Rattus norvegicus. Nature of the assay: Inhibition of LPS-induced TNFalpha level in Sprague-Dawley rat serum at 25 mg/kg, po pretreated for 1 hr followed by LPS treatment measured after 90 mins by ELISA relative to control. Format: functional. (ELISA stands for enzyme-linked immunosorbent assay.)
In assay [7] the target is T2, Tyrosine-protein kinase Fyn. Nature of the assay: Inhibition of Fyn (unknown origin) using Src-family kinase bisamide rhodamine 110 peptide substrate after 1 hr by fluorescence assay.
Target sequence in this assay (P06241 whole entry): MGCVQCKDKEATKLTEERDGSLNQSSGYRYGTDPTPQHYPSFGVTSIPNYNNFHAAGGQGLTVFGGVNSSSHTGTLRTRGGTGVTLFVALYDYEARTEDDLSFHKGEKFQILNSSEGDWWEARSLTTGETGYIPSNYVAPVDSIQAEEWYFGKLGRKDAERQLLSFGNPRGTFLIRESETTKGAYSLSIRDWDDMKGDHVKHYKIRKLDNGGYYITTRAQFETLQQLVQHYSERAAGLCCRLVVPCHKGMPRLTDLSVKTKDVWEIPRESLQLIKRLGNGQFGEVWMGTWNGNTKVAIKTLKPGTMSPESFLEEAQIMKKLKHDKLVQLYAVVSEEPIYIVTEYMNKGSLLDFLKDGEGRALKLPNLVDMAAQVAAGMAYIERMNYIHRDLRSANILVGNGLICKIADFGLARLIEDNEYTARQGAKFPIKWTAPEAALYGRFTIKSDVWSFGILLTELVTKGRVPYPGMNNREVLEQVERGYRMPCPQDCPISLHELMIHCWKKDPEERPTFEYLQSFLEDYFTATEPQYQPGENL
In assay [8] the test system is Rattus norvegicus. Nature of the assay: Anti-hyperglycemic activity in streptozotocin-induced Wistar albino rat diabetic model assessed as reduction in blood glucose level at 4 mg/kg equiv of glimepiride treated orally measured up to 6 hrs post dose by glucometric method relative to control. The class given is functional. Also on record: scale not given: the % may be the effect or the level left.

Assay [9] deals with Rattus norvegicus. Nature of the assay: Anti-hyperglycemic activity in Wistar albino rat sucrose loaded model assessed as reduction in blood glucose level at 4 mg/kg equiv of glimepiride pretreated orally for 30 mins followed by sucrose challenge and measured up to 120 mins post sucrose challenge relative to control. The class given is functional. Further details: scale not given: the % may be the effect or the level left.

Proto-oncogene tyrosine-protein kinase Src (Homo sapiens), sequence (P12931 2-536 limits assumed): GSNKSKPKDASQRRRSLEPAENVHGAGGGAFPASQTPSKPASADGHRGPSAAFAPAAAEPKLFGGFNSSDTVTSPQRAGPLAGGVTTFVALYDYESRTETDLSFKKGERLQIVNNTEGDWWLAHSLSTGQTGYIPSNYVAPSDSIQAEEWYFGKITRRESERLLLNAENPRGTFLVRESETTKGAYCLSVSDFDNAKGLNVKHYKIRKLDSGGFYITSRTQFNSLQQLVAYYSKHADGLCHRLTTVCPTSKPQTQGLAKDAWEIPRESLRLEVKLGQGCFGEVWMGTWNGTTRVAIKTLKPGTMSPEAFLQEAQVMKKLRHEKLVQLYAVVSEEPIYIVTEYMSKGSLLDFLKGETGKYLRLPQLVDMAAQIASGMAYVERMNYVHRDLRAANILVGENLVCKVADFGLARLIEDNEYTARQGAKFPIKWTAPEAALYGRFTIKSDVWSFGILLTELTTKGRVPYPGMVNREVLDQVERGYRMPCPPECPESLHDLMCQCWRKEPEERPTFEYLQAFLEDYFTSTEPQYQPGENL

Consider `NC(=O)c1ncn([C@@H]2O[C@H](CO)[C@@H](O)[C@H]2O)n1` [RIBAVIRIN], for which the results for the MIC (in assay [1]; in the assay with Newcastle disease virus) were 6 µg/mL (≈ 24.6 µM) and 3 µg/mL (≈ 12.3 µM), respectively.

The compound `COc1ccc(-c2cc3c(N[C@H](C)c4cccc5ccccc45)ncnc3[nH]2)cc1` came in with an MIC in the assay with Tetrahymena of 32 µg/mL (≈ 81.1 µM).

In turn, `O=c1c2cc(-c3ccc(Br)cc3)n(-c3ccccc3)c2ncn1CCOCCO` returned an MIC in assay [1] of 4.5 µg/mL (≈ 9.9 µM).

For the compound `Cc1ccc(C(=O)NCc2c[nH]c3nc(N)[nH]c(=O)c23)s1`, the inhibition (commonly the change of the read-out against control, counted positive when it falls) is 40% in [2], 41% in [3] and 71% in assay [4].

In assay [1], `O=c1c2cc(-c3ccccc3)n(-c3ccccc3)c2ncn1CCOCCO` registered an MIC of 3.8 µg/mL (≈ 10.1 µM).

As to `Nc1ccn([C@@H]2O[C@H](CO)[C@@H](O)[C@@H]2O)c(=O)n1` [CYTARABINE], the IC50 (commonly the concentration that inhibits the measured activity by half) is 18 nM in the assay with Jurkat E6.1 and 185 nM in the assay with HL-60.

`COc1cccc(-c2cn(-c3ccc(CCN4CCC(O)CC4)cc3)c3ncnc(N)c23)c1`: in assay [5], it took 0.4 nM to reach half-maximal inhibition (IC50).

Regarding `CCCCCc1ccc(-c2cc3cn([C@@H]4O[C@H](CO)[C@@H](O)[C@@H]4O)c(=O)nc3[nH]2)cc1`, the IC50 with Jurkat E6.1 is 61000 nM; with HL-60 it was 68000 nM.

Regarding `O=c1[nH]cnc2c1cc(-c1ccccc1)n2-c1ccccc1`, the values for the MIC in the assay with Salmonella typhimurium, in the assay with Newcastle disease virus and against Escherichia coli were 2.8 µg/mL (≈ 9.75 µM), 2.7 µg/mL (≈ 9.4 µM) and 2.8 µg/mL (≈ 9.75 µM), respectively.

`O=c1c2cc(-c3ccc(Br)cc3)n(-c3ccccc3)c2ncn1CC(O)CO` (centres undefined) showed an MIC in assay [1] of 4.1 µg/mL (≈ 9.31 µM).

For the compound `C[C@H](Nc1ncnc2[nH]c(-c3ccc(O)cc3)cc12)c1ccccc1`, the MIC with Tetrahymena amounted to 8 µg/mL (≈ 24.2 µM).

Regarding `Nc1nc2[nH]cc(CNC(=O)COc3ccc(Cl)cc3)c2c(=O)[nH]1`, the figures for the inhibition in assay [2], in assay [3] and in [4] were 28%, 36% and 60%, respectively.

As for `C[C@H](Nc1ncnc2[nH]c(-c3ccc(O)cc3)cc12)c1ccc(Br)cc1`, the MIC against Tetrahymena amounted to 8 µg/mL (≈ 19.5 µM).

The compound `O=c1c2cc(-c3ccccc3)n(-c3ccccc3)c2ncn1CC(O)CO` (centres undefined) returned an MIC in assay [1] of 3.6 µg/mL (≈ 9.96 µM).

Take `C[C@@H]1C[C@H]2[C@@H]3CCC4=CC(=O)C=C[C@]4(C)[C@@]3(F)[C@@H](O)C[C@]2(C)[C@@]1(O)C(=O)CO` [DEXAMETHASONE]: the inhibition in vivo (as a rule, the percentage by which the read-out fell short of the control) at 25 mg/kg in the assay with Rattus norvegicus [6] was 91%.

In the assay on Tetrahymena, `C[C@@H](Nc1ncnc2[nH]c(-c3ccc(O)cc3)cc12)c1cccc2ccccc12` showed an MIC of 32 µg/mL (≈ 84.1 µM).

For `O=c1[nH]cnc2c1cc(-c1ccc(Cl)cc1)n2-c1ccccc1`, the MIC against Salmonella typhimurium and in the assay on Escherichia coli was 3.2 µg/mL (≈ 9.95 µM) throughout.

Compound `CN1CCN([C@H]2CC[C@H](n3cc(-c4ccc(Oc5ccccc5)cc4)c4c(N)ncnc43)CC2)CC1` gave an IC50 in [7] of 0.3 nM.

As for `Cc1nc(Cl)c2c(-c3ccccc3)c(-c3ccccc3)n(-c3c(C)n(C)n(-c4ccccc4)c3=O)c2n1`, the Activity in the assay with Rattus norvegicus [8] was 11.2%; with Rattus norvegicus [9], 13%.

Consider `CCOc1ccc(NC(=O)Cn2cnc3c(cc(-c4ccccc4)n3-c3ccncc3)c2=O)cc1`, for which the inhibition in vivo at 25 mg/kg in the assay with Rattus norvegicus [6] came out at 96%.

Turning to `COc1ccc(CCCC(=O)NCc2c[nH]c3nc(N)[nH]c(=O)c23)cc1OC`, the figures for the inhibition in assay [2], in [3] and in [4] were 32%, 38% and 54%, respectively.
